This is an account of results in patent US20240041823A1, “USE OF MYCOLACTONE (MLN) AND DERIVATIVES THEREOF FOR TREATMENT OF MICROBIAL INFECTIONS” (priority 2022, published 2024).

For this test, the system named is SARS-CoV-2 variants of concern (VOC). It is filed as cell-based. The conditions noted are these: plaque assay.

Turning to mycolactone [MLN], the “IC50 fold lower than Remdesivir” value is given as 9-18 fold.
